A short description of test [1]: Inhibition of His-tagged TEAD1 (unknown origin) to YAP (unknown origin) protein-protein interaction preincubated for 30 mins followed by biotinylated YAP addition and measured after 60 mins by TR-FRET assay. More on the design: species or system Homo sapiens.
Test [2] in a line: Inhibition of His-tagged TEAD2 (unknown origin) to YAP (unknown origin) protein-protein interaction preincubated for 30 mins followed by biotinylated YAP addition and measured after 60 mins by TR-FRET assay. Also noted: species or system Homo sapiens. On the technique in general: Time-resolved FRET reads energy transfer from a long-lived donor to a nearby acceptor.
Test [3] in a line: Inhibition of His-tagged TEAD3 (unknown origin) to YAP (unknown origin) protein-protein interaction preincubated for 30 mins followed by biotinylated YAP addition and measured after 60 mins by TR-FRET assay. More on the design: species or system Homo sapiens.
A short description of test [4]: Inhibition of His-tagged TEAD4 (unknown origin) to YAP (unknown origin) protein-protein interaction preincubated for 30 mins followed by biotinylated YAP addition and measured after 60 mins by TR-FRET assay. More on the design: species or system Homo sapiens.
Test [5] in a line: Inhibition of His-tagged TEAD1 (unknown origin) to TAZ (unknown origin) protein-protein interaction preincubated for 30 mins followed by biotinylated YAP addition and measured after 60 mins by TR-FRET assay. Also noted: species or system Homo sapiens.
Test [6] can be described thus: Inhibition of His-tagged TEAD2 (unknown origin) to TAZ (unknown origin) protein-protein interaction preincubated for 30 mins followed by biotinylated YAP addition and measured after 60 mins by TR-FRET assay. Also noted: species or system Homo sapiens.
A short description of test [7]: Inhibition of His-tagged TEAD3 (unknown origin) to TAZ (unknown origin) protein-protein interaction preincubated for 30 mins followed by biotinylated YAP addition and measured after 60 mins by TR-FRET assay. Also noted: species or system Homo sapiens.
The nature of test [8]: Inhibition of His-tagged TEAD4 (unknown origin) to TAZ (unknown origin) protein-protein interaction preincubated for 30 mins followed by biotinylated YAP addition and measured after 60 mins by TR-FRET assay. More on the design: species or system Homo sapiens.
The subject of test [9] is Transcriptional enhancer factor TEF-1-Lipid. Put plainly: Inhibition of His-tagged TEAD1 (unknown origin) to lipid (unknown origin) interaction preincubated for 30 mins followed by biotinylated lipid addition and measured after 60 mins by TR-FRET assay. More on the design: species or system Homo sapiens.
Test [10] deals with Transcriptional enhancer factor TEF-4-Lipid. The test is described as follows: Inhibition of His-tagged TEAD2 (unknown origin) to lipid (unknown origin) interaction preincubated for 30 mins followed by biotinylated lipid addition and measured after 60 mins by TR-FRET assay. More on the design: species or system Homo sapiens.
Test [11] deals with Transcriptional enhancer factor TEF-5-Lipid. Put plainly: Inhibition of His-tagged TEAD3 (unknown origin) to lipid (unknown origin) interaction preincubated for 30 mins followed by biotinylated lipid addition and measured after 60 mins by TR-FRET assay. Also noted: species or system Homo sapiens.
Test [12] concerns Transcriptional enhancer factor TEF-3-Lipid. The test is described as follows: Inhibition of His-tagged TEAD4 (unknown origin) to lipid (unknown origin) interaction preincubated for 30 mins followed by biotinylated lipid addition and measured after 60 mins by TR-FRET assay. More on the design: species or system Homo sapiens.
The test system of test [13] is OVCAR-8. The test is described as follows: Antiproliferative activity against human OVCAR-8 cells by CellTiter-Glo luminescent cell viability assay. It is filed as functional, cell-based. (In ATP-based viability assays light output follows the ATP content of the culture.)
Test [14] can be described thus: Antiproliferative activity against human HCC1576 cells by CellTiter-Glo luminescent cell viability assay. It is filed as functional, cell-based.
Test [15] in a line: Antiproliferative activity against human VMRC-LCD cells by CellTiter-Glo luminescent cell viability assay. It is filed as functional, cell-based.
Test [16] has as its system OVCAR-8. The test is described as follows: Antiproliferative activity against human OVCAR-8 cells assessed as minimum efficacy by CellTiter-Glo luminescent cell viability assay. The test is classed as functional.
A short description of test [17]: Antiproliferative activity against human HCC1576 cells assessed as minimum efficacy by CellTiter-Glo luminescent cell viability assay. It is filed as functional.
For test [18], the system named is MGC-803. Put plainly: Antiproliferative activity against human MGC-803 cells incubated for 48 hrs by MTT assay. Conditions: MGC-803, 48 h. It is filed as functional, cell-based.
The test system of test [19] is SGC-7901. The test is described as follows: Antiproliferative activity against human SGC-7901 cells incubated for 48 hrs by MTT assay. The test is classed as functional, cell-based. Conditions: SGC-7901, 48 h. (Tetrazolium assays rely on reduction of a dye to a coloured formazan, in cell work by metabolically active cells.)
Test [20] has as its system HGC-27. Put plainly: Antiproliferative activity against human HGC-27 cells incubated for 48 hrs by MTT assay. The test is classed as functional, cell-based. Conditions: HGC-27, 48 h.
Test [21] relates to HCT-116. The test is described as follows: Antiproliferative activity against human HCT-116 cells incubated for 48 hrs by MTT assay. It is filed as functional, cell-based. As to conditions: HCT-116, 48 h.
Test [22] concerns PC-3. The test is described as follows: Antiproliferative activity against human PC-3 cells incubated for 48 hrs by MTT assay. The test is classed as functional, cell-based. As to conditions: PC-3, 48 h.
Test [23] concerns MCF7. Put plainly: Antiproliferative activity against human MCF7 cells incubated for 48 hrs by MTT assay. The test is classed as functional, cell-based. Conditions: MCF7, 48 h.
In test [24] the test system is U-251. The test is described as follows: Antiproliferative activity against human U251 cells incubated for 48 hrs by CCK8 assay. The test is classed as functional, cell-based. As to conditions: U-251, 48 h.
Test [25] concerns C6. Put plainly: Antiproliferative activity against rat C6 cells incubated for 48 hrs by CCK8 assay. The test is classed as functional, cell-based. Conditions: C6, 48 h.
The nature of test [26]: Antiproliferative activity against CMT9 cells incubated for 48 hrs. The test is classed as functional. As to conditions: Canis lupus familiaris, read-out: ED50 (the source's name).
The nature of test [27]: Antiproliferative activity against CMT47 cells incubated for 48 hrs. The test is classed as functional. Conditions: Canis lupus familiaris, read-out: ED50 (the source's name).
Test [28] relates to HuCCT-1. Put plainly: Antiproliferative activity against human HuCCT-1 cells incubated for 24 hrs by WST-1 assay. The test is classed as functional, cell-based. As to conditions: HuCCT-1, 24 h.
The subject of test [29] is MDA-MB-231. The test is described as follows: Antiproliferative activity against human MDA-MB-231 cells incubated for 96 hrs by MTT assay. As to conditions: MDA-MB-231, 96 h. The test is classed as functional, cell-based.
The nature of test [30]: Antiproliferative activity against human HBC5 cells incubated for 96 hrs by MTT assay. It is filed as functional, cell-based. As to conditions: HBC5, 96 h.
The test system of test [31] is GBM. Put plainly: Antiproliferative activity against human GBM cells incubated for 48 hrs by CCK8 assay. It is filed as functional, cell-based.
Test [32] deals with U-251. Put plainly: Antiproliferative activity against human U-251 cells incubated for 48 hrs by CCK8 assay. It is filed as functional, cell-based. As to conditions: U-251, 48 h.
Test [33] deals with U-87 MG. Put plainly: Antiproliferative activity against human U87 cells incubated for 48 hrs by CCK8 assay. It is filed as functional, cell-based, U-87MG ATCC.
A short description of test [34]: Antiproliferative activity against mouse GL261 cells incubated for 48 hrs by CCK8 assay. It is filed as functional, cell-based. Conditions: GL261, 48 h.
Test [35] concerns LN-229. The test is described as follows: Antiproliferative activity against LN-229 cells incubated for 48 hrs by CCK8 assay. As to conditions: Homo sapiens, LN-229, 48 h. It is filed as functional, cell-based.
Test [36] is described as follows: Antiproliferative activity against […] cells incubated for 48 hrs by CCK8 assay. The test is classed as functional, cell-based. As to conditions: U373 MG.
The subject of test [37] is MDA-MB-231. Put plainly: Antiproliferative activity against human MDA-MB-231 cells incubated for 72 hrs by SRB method. Conditions: MDA-MB-231, 72 h. The test is classed as functional, cell-based.
The test system of test [38] is 4T1. Put plainly: Antiproliferative activity against mouse 4T1 cells incubated for 72 hrs by SRB method. The test is classed as functional, cell-based. As to conditions: 4T1, 72 h.
In test [39] the test system is MDA-MB-453. Put plainly: Antiproliferative activity against human MDA-MB-453 cells incubated for 96 hrs by MTT assay. As to conditions: MDA-MB-453, 96 h. The test is classed as functional, cell-based.
Test [40] relates to MCF7. The test is described as follows: Antiproliferative activity against human MCF7 cells incubated for 48 hrs by CCK8 assay. It is filed as functional, cell-based. As to conditions: MCF7, 48 h.
The subject of test [41] is C8161. Put plainly: Antiproliferative activity against human C8161 cells incubated for 72 hrs by alamar blue staining based assay. It is filed as functional, cell-based. As to conditions: C8161, 72 h.
Test [42] concerns A-375. Put plainly: Antiproliferative activity against human A-375 cells incubated for 72 hrs by alamar blue staining based assay. It is filed as functional, cell-based. Conditions: A-375, 72 h.
The nature of test [43]: Inhibition of cell invasion in human colorectal cancer cells. The test is classed as functional.

Usually IC50 stands for the concentration that gives 50% inhibition. Turning to `O=C(c1c(-c2cnccn2)nn2c(=O)cc(-c3ccc(C4CCCCC4)cc3)[nH]c12)N1CC(CF)C1`, the IC50 in test [1] was 40 nM; in [2] it was 10 nM; in [3], 110 nM; in [4] it was 50 nM; in test [5] it was 40 nM; in test [6], 10 nM. Also, the IC50 in [7] is 60 nM; in test [8], 30 nM; in test [9] it was 50 nM; in test [10], 20 nM; in [11], 40 nM; in test [12], over 20 nM. Moreover, the figures for the EC50 in test [13], in test [14] and in test [15] were 200 nM, 190 nM and over 50000 nM, respectively. The values for the Emin in test [16] and in [17] were 84% and 67%, respectively.
As to `COc1ccc(S(=O)(=O)N(Cc2nc(C)c3ccccc3n2)c2cc(OC)c(OC)c(OC)c2)cc1`, the IC50 in test [18] stood at 360 nM; in [19], 380 nM; in [20], 460 nM; in test [21] it was 700 nM; in [22], 1040 nM; in test [23] it was 810 nM.
`O=c1ccc2ccc3occc3c2o1` [ANGELICIN]: the IC50 in test [24] and in test [25] was 200000 nM throughout.
Consider `CC(C)c1c(C(=O)Nc2ccccc2)c(-c2ccccc2)c(-c2ccc(F)cc2)n1CC[C@@H](O)C[C@@H](O)CC(=O)O` [ATORVASTATIN], for which the EC50 in test [26] came out at 23500 nM; in test [27], 7000 nM. This compound gave an IC50 in [28] of under 50000 nM.
Turning to `Cc1nc(Nc2ncc(C(=O)Nc3c(C)cccc3Cl)s2)cc(N2CCN(CCO)CC2)n1` [DASATINIB ANHYDROUS], the IC50 in test [29] and in test [30] was under 10000 nM throughout.
For `CN(C)CCCN1c2ccccc2CCc2ccccc21` [IMIPRAMINE], the IC50 was found to be 22100 nM in test [31]; 24000 nM in test [32]; 13300 nM in test [33]; 43800 nM in [34]; 153000 nM in test [35]; 346000 nM in test [36].
On to `O=c1cc(-c2ccc(O)c(O)c2)oc2cc(O)cc(O)c12` [LUTEOLIN], for which the IC50 came out at 19200 nM in test [37] and 6980 nM in [38].
In the case of `Cc1ccc(Nc2nccc(N(C)c3ccc4c(C)n(C)nc4c3)n2)cc1S(N)(=O)=O` [PAZOPANIB], the IC50 in [29], in test [30] and in test [39] was at most 10000 nM in each case.
Consider `CCC(C)(C)C(=O)O[C@H]1C[C@@H](C)C=C2C=C[C@H](C)[C@H](CC[C@@H]3C[C@@H](O)CC(=O)O3)[C@H]21` [SIMVASTATIN], for which the IC50 in test [40] was over 10000 nM.
`CC(C)[C@]12O[C@H]1[C@@H]1O[C@@]13[C@@]1(C)CCC4=C(COC4=O)[C@@H]1C[C@@H]1O[C@@]13C2=O` [TRIPTONIDE]: the half-inhibitory concentration (IC50) was found to be 5.56 nM in [41] and 16.2 nM in test [42].
`N#Cc1ccc2[nH]cc(CCCCN3CCN(c4ccc5oc(C(N)=O)cc5c4)CC3)c2c1` [VILAZODONE]: the “inhibition (INH)” value in test [43] was 36%.

These data come from ChEMBL document CHEMBL6071129, “Strategies that regulate Hippo signaling pathway for novel anticancer therapeutics” (Eur J Med Chem, 2024).
